Experimental data from patent US11944615B2, “Combination therapy for treatment of LKB1 deficient cancers” (New York University, priority 2020, dated 2024).

Tests used:
KL allograft tumor = experiment: KL subcutaneous allograft tumor growth in syngeneic wild-type mice; assay type: in vivo; details: KL allograft implanted subcutaneously in right flank, single agent, I.P. 5 days/week
Excerpt: FIG. 6. NAMPT inhibition reduced KL lung tumor growth in vivo. A) Lung tumor volume measurements of KL subcutaneous allograft tumors following treatment with indicated drugs. B) Average tumor volumes over time in KL tumors with indicated treatments. Arrow denotes treatment start time. C) Percent change in KL tumor volume after 6 days of treatment with indicated drugs. D) Images of subcutaneous KL tumor allografts at endpoint of treatment experiment. *P<0.05.
All animal experiments were reviewed and approved by the Institutional Animal Care and Use Committee (IACUC) at NYU Langone Health. For lung tumor growth assays, 10^6 KP and KL syngeneic mouse lung cancer cells were implanted into male C57BL/6 mice at 7 weeks of age via tail vein injection. After 8 weeks, mice were imaged by Mill to assess tumor volume. For drug treatment experiments, 10^6 KLA cells were injected subcutaneously in the right flank of female C57BL/6 mice at 7 weeks of age or injected via tail vein injection. […] Tumor volumes were measured using digital calipers or Mill. Mouse weights were measured weekly to adjust total dosage and assess the effects of drug combinations on mouse health. […]

PD-L1 = experiment: Western blot of PD-L1 in KP cells with SIK or LKB1 knockout treated with NAM; assay type: cell-based, mouse
Description: A) Western blot of indicated proteins in KL or KP cells with SIK or LKB1 knockout and treated with NAM or NAD^+ for 6 days.
Lung cancer cell lines were cultured in RPMI 1640 (Gibco, Thermo Fisher Scientific) supplemented with 10% fetal bovine serum (FBS, Gibco). The KPC Kras^LA1-G12D p53^−/− (KP) and KLA Kras^LA1-G12D;Lkb1^−/− (KL) murine lung cancer cell lines were generated by dissociation of KP and KL lung tumor nodules to single cell suspensions, seeded on tissue culture plates, and cultured in RPMI 1640 (Gibco, Thermo Fisher Scientific) supplemented with 10% fetal bovine serum (FBS, Gibco). […] All cells were cultured at 37° C. in a humidified incubator at 5% CO2 and verified on a weekly basis to be mycoplasma negative.

## O=C(/C=C/c1cccnc1)NCCCCC1CCN(C(=O)c2ccccc2)CC1 [FK866]
KL allograft tumor
  tumor growth: reduced lung tumor growth only after 6 days of treatment

## NC(=O)c1cccnc1 [NAM, nicotinamide]
PD-L1; KP cells with SIK or LKB1 KO, NAM treatment for 6 days
  PD-L1 levels: marked reduction in PD-L1 levels
PD-L1; KP cells with wild-type SIK or LKB1, NAM treatment
  PD-L1 levels: no effect on PD-L1 levels
